For orientation: MIC means the least concentration at which growth counts as inhibited. By IC50 is commonly meant the concentration at which inhibition is half-maximal.

From patent US8809333B2, “Imidazole, pyrazole, and triazole derivatives useful as antibacterial agents” (Pfizer Inc., priority 2011, dated 2014) come the findings set out here.

In brackets after ≈: the same amount, converted by molar mass. Where two headings read alike, the source gives them in different places.

For assay [1], the system named is Escherichia coli EC-1: VOGEL, mouse virulent. Kind of assay: MIC determination (CLSI), EC-1. In kind it is cell-based. As to conditions: Escherichia coli, read-out: EC-1 (MIC). On the procedure: (§1) The in vitro antibacterial activity of compounds described in the Examples was evaluated by minimum inhibitory concentration (MIC) testing according to Clinical and Laboratory Standards Institute (CLSI) Guidelines. See: Clinical and Laboratory Standards Institute. Methods for Dilution Antimicrobial Susceptibility Tests for Bacteria that Grow Aerobically; Approved Standard-Eighth Edition. CLSI document M7-A8 [ISBN 1-56238-689-1]. Clinical and Laboratory Standards Institute, 940 West Valley Road, Suite 1400, Wayne, Pa. 19087-1898 USA, 2006; also Clinical and Laboratory Standards Institute. Performance Standards for Antimicrobial Susceptibility Testing; Twentieth Informational Supplement. CLSI document M100-S20 [ISBN1-56238-716-2]. Clinical and Laboratory Standards Institute.
(§2) The MIC determination is a standard laboratory method for evaluating the antibacterial activity of a compound. The MIC represents the lowest drug concentration that inhibits visible growth of bacteria following overnight incubation. […] Typically, the drug concentration range is broken down into 2-fold increments (e.g. 0.06 μg/mL, 0.12 μg/mL. 0.25 μg/mL, 0.50 μg/mL, 1.0 μg/mL, etc.) and the various drug concentrations are all individually incubated overnight with approximately the same number of bacteria. The MIC is then determined by visually inspecting the drug effect at each concentration, and identifying the lowest drug concentration that has inhibited bacterial growth as compared to the drug free control. Typically, bacteria continue to grow at drug concentrations lower than the MIC and don't grow at concentrations at and above the MIC.
(§3) The MIC values described in Tables 2 and 3 below were derived from assays wherein each test compound was evaluated in duplicate. In cases where the duplicate values varied by 0-2-fold, the lower of the two values was reported below. Generally speaking, if the duplicate values varied by more than 2-fold, the assay was considered non-valid and was repeated until the variation between duplicate runs was ≦2-fold. In line with the CLSI guidelines referred to above, both control organisms and reference compounds were utilized in each MIC assay to provide proper quality control. MIC values generated with these control organisms and reference compounds were required to fall within a defined range for the assay to be considered valid and be included herein. Those skilled in the art will recognize that MIC values can and do vary from experiment to experiment. Generally speaking, it should be recognized that MIC values often vary +/−2-fold from experiment to experiment. While a single MIC is reported for each compound and each microorganism, the reader should not conclude that each compound was only tested once. Several of the compounds were subjected to multiple tests. The data reported in Tables 2 and 3 is reflective of the compounds relative activity and different MICs may have been generated on these occasions in line with the guidelines described above.
(§4) The following bacterial strains were used in these MIC determinations:
(2) Escherichia coli EC-1: VOGEL, mouse virulent labeled as EC-1 in Table 5;

The target in assay [2] is T1, Pseudomonas aeruginosa LpxC enzyme (Pseudomonas aeruginosa, UniProt P47205).
T1 construct: made in house; host or cells: E. coli
T1 sequence (P47205 1-303): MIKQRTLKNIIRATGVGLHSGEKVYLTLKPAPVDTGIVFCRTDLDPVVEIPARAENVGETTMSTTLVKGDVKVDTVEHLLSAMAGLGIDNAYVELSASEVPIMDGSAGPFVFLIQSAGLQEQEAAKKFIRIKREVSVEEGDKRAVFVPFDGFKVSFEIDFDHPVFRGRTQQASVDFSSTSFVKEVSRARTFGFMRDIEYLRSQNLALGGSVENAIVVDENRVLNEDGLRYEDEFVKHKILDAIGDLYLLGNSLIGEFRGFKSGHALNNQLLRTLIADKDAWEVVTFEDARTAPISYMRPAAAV
Put plainly: IC50 assay, LpxC enzyme from P. aeruginosa (BioTrove RapidFire mass spectrometry). In kind it is biochemical. How it is done: In order to assess the compounds biological activity, selected in-vitro assays were conducted on selected compounds of Formula I. One of the assays measured the compounds ability to disrupt the synthesis of lipopolysaccharide, LPS, which is a component of the outer membrane of Gram-negative bacteria. Disruption of this synthesis is lethal to the bacteria. The assay determined the compound's ability to inhibit LpxC, which is the first enzyme in the biosynthetic pathway for LPS (measured as IC50). Additionally, MICs (minimal inhibitory concentrations) were determined for several bacteria. The specific protocols are described below:
A) IC50 Assay, LpxC Enzyme from P. Aeruginosa Labeled as PA LpxC Enzyme IC50):
At the end of 1 hour, 5 ul of 1 N HCl was added to stop the enzyme reaction, the plates were centrifuged, and then processed with the BioTrove Rapidfire HTMS Mass Spectrometry System. A no-enzyme control was used in calculating the IC50 values from the percent conversion values.

Assay [3] deals with Acinetobacter baumannii/haemolyticus: Multidrug-resistant clinical isolate (AB-3167). Put plainly: MIC determination (CLSI), AB-3167. In kind it is cell-based. The settings on record: Acinetobacter baumannii/haemolyticus multidrug-resistant clinical isolate; overnight incubation; lower of duplicate values; read-out: AB-3167 (MIC). On the procedure: as §1, §2, §3, §4
(1) Acinetobacter baumannii/haemolyticus: Multidrug-resistant clinical isolate labeled as AB-3167 in Table 5;

Assay [4] has as its system Klebsiella pneumoniae: Ciprofloxacin-resistant isolate, expresses ESBL, clinical isolate (KP-3700). Kind of assay: MIC determination (CLSI), KP-3700. In kind it is cell-based. The settings on record: overnight incubation, lower of duplicate values. How it is done: as §1, §2, §3, §4
(3) Klebsiella pneumoniae: Ciprofloxacin-resistant isolate, expresses extended-spectrum beta-lactamases (ESBL), clinical isolate, labeled as KP-3700 in Table 5.

Assay [5] deals with Pseudomonas aeruginosa UI-18: Wild-type (PA-7). Put plainly: MIC determination (CLSI), PA-7. In kind it is cell-based. The settings on record: Pseudomonas aeruginosa UI-18 wild-type; overnight incubation; lower of duplicate values; read-out: PA-7 (MIC). On the procedure: as §1, §2, §3, §4
(4) Pseudomonas aeruginosa UI-18: Wild-type, labeled as PA-7 in Table 5;

[6] abbreviates: P. aeruginosa LpxC enzyme 0.1 nM, 25° C., 1 hour, pH 8.0, read-out: PA: IC50.

As for `CC(CCn1cc(COc2ccc3ccccc3c2)nn1)(C(=O)NO)S(C)(=O)=O` (stereo not shown) [Example 30, N-hydroxy-2-methyl-2-(methylsulfonyl)-4-{4-[(naphthalen-2-yloxy)methyl]-1H-1,2,3-triazol-1-yl}butanamide], the MIC was more than 64 µg/mL in assay [1], more than 64 µg/mL in assay [3] and 32 µg/mL (≈ 76.5 µM) in assay [5]. Also, the IC50 in assay [2] (setting [6]) was 3.76 nM. The “KP-3700 (MIC)” value in assay [4] is more than 64.0 µg/mL.
Take `CC(C)c1ccccc1SCc1cn(CCC(C)(C(=O)NO)S(C)(=O)=O)nn1` (stereo not shown) [Example 31, N-hydroxy-2-methyl-2-(methylsulfonyl)-4-[4-({[2-(propan-2-yl)phenyl]sulfanyl}methyl)-1H-1,2,3-triazol-1-yl]butanamide]: the MIC in assay [1], in assay [3] and in assay [5] was more than 64 µg/mL each time. Besides, the concentration for half-maximal inhibition (IC50) in assay [2] (setting [6]) is 303 nM. Besides, in assay [4], the “KP-3700 (MIC)” value was more than 64.0 µg/mL.
In the case of `CCc1ccccc1SCc1cn(CCC(C)(C(=O)NO)S(C)(=O)=O)nn1` (stereo not shown) [Example 32, 4-(4-{[(2-ethylphenyl)sulfanyl]methyl}-1H-1,2,3-triazol-1-yl)-N-hydroxy-2-methyl-2-(methylsulfonyl)butanamide], the MIC in assay [1], in assay [3] and in assay [5] was more than 64 µg/mL in each case. Besides, the IC50 in assay [2] (setting [6]) amounted to 50.9 nM. Also, in assay [4], the “KP-3700 (MIC)” value was more than 64.0 µg/mL.
In the case of `CC(CCn1cc(COc2ccc(C(F)(F)F)cc2)nn1)(C(=O)NO)S(C)(=O)=O` (stereo not shown) [Example 33, N-hydroxy-2-methyl-2-(methylsulfonyl)-4-(4-{[4-(trifluoromethyl)phenoxy]methyl}-1H-1,2,3-triazol-1-yl)butanamide], the figures for the MIC in assay [1], in assay [3] and in assay [5] were 64 µg/mL (≈ 147 µM), more than 64 µg/mL and 32 µg/mL (≈ 73.3 µM), respectively. In assay [2] (setting [6]), the IC50 worked out at 9.6 nM. In assay [4], the “KP-3700 (MIC)” value is more than 64.0 µg/mL.
Taken in the same sequence, the figures for `CC(CCn1cc(COc2cccc3ccccc23)nn1)(C(=O)NO)S(C)(=O)=O` (stereo not shown) [Example 34, N-hydroxy-2-methyl-2-(methylsulfonyl)-4-{4-[(naphthalen-1-yloxy)methyl]-1H-1,2,3-triazol-1-yl}butanamide] were more than 64 µg/mL, more than 64 µg/mL, more than 64 µg/mL, 26.3 nM and more than 64.0 µg/mL.
On to `CC(C)(C)c1cccc(OCc2cn(CCC(C)(C(=O)NO)S(C)(=O)=O)nn2)c1` (stereo not shown) [Example 35, 4-{4-[(3-t-butylphenoxy)methyl]-1H-1,2,3-triazol-1-yl}-N-hydroxy-2-methyl-2-(methylsulfonyl)butanamide], for which the MIC in assay [1], in assay [3] and in assay [5] was more than 64 µg/mL throughout. Further, the IC50 in assay [2] (setting [6]) turned out to be 24 nM. In assay [4], the “KP-3700 (MIC)” value is more than 64.0 µg/mL.
Regarding `CSc1cccc(OCc2cn(CCC(C)(C(=O)NO)S(C)(=O)=O)nn2)c1` (stereo not shown) [Example 36, N-hydroxy-2-methyl-4-(4-{[3-(methylsulfanyl)phenoxy]methyl}-1H-1,2,3-triazol-1-yl)-2-(methylsulfonyl)butanamide], the MIC was more than 64 µg/mL in assay [1], more than 64 µg/mL in assay [3] and 32 µg/mL (≈ 77.2 µM) in assay [5]. Also, the IC50 in assay [2] (setting [6]) turned out to be 6.39 nM. For the same compound, in assay [4], the “KP-3700 (MIC)” value is more than 64.0 µg/mL.
As for `Cc1ccc(-c2cn(CCC(C)(C(=O)NO)S(C)(=O)=O)nn2)cc1` (stereo not shown) [Example 37, N-hydroxy-2-methyl-4-[4-(4-methylphenyl)-1H-1,2,3-triazol-1-yl]-2-(methylsulfonyl)butanamide], the MIC in assay [1] was 16 µg/mL (≈ 45.4 µM); in assay [3] it was more than 64 µg/mL; in assay [5], 4 µg/mL (≈ 11.4 µM). Besides, the IC50 in assay [2] was found to be 1.39 nM. In assay [4], the “KP-3700 (MIC)” value was 64 µg/mL.
`CC(CCn1cc(-c2ccccc2Br)nn1)(C(=O)NO)S(C)(=O)=O` (stereo not shown) [Example 38, 4-[4-(2-bromophenyl)-1H-1,2,3-triazol-1-yl]-N-hydroxy-2-methyl-2-(methylsulfonyl)butanamide]: the MIC is 16 µg/mL (≈ 38.3 µM) in assay [1], more than 64 µg/mL in assay [3] and 32 µg/mL (≈ 76.7 µM) in assay [5]. In assay [2] (setting [6]), the IC50 turned out to be 18.9 nM. In addition, the “KP-3700 (MIC)” value in assay [4] was more than 64.0 µg/mL.
On the same counts, the results for `Cc1ccc(C)c(OCc2cn(CCC(C)(C(=O)NO)S(C)(=O)=O)nn2)c1` (stereo not shown) [Example 39, 4-{4-[(2,5-dimethylphenoxy)methyl]-1H-1,2,3-triazol-1-yl}-N-hydroxy-2-methyl-2-(methylsulfonyl)butanamide] are more than 64 µg/mL, more than 64 µg/mL, more than 64 µg/mL, 51.3 nM and more than 64.0 µg/mL.
For the compound `CC(CCn1cc(-c2ccccc2)cn1)(C(=O)NO)S(C)(=O)=O` (stereo not shown) [Example 40, N-hydroxy-2-methyl-2-(methylsulfonyl)-4-(4-phenyl-1H-pyrazol-1-yl)butanamide], the MIC in assay [1] is 32 µg/mL (≈ 94.8 µM); in assay [3], more than 64 µg/mL; in assay [5] it was 2 µg/mL (≈ 5.93 µM). The compound further came in with a concentration for half-maximal inhibition (IC50) in assay [2] of 4.63 nM. In addition, the “KP-3700 (MIC)” value in assay [4] was more than 64.0 µg/mL.
In the case of `Cc1ccc(-c2cnn(CCC(C)(C(=O)NO)S(C)(=O)=O)c2)cc1` (stereo not shown) [Example 41, N-hydroxy-2-methyl-4-[4-(4-methylphenyl)-1H-pyrazol-1-yl]-2-(methylsulfonyl)butanamide], the minimum inhibitory concentration (MIC) in assay [1] was 8 µg/mL (≈ 22.8 µM); in assay [3], more than 64 µg/mL; in assay [5], 2 µg/mL (≈ 5.69 µM). For the same compound, the IC50 in assay [2] (setting [6]) came out at 1.26 nM. Besides, the “KP-3700 (MIC)” value in assay [4] stood at 64 µg/mL.
Taken in the same sequence, the figures for `Cc1cccc(-c2cnn(CCC(C)(C(=O)NO)S(C)(=O)=O)c2)c1` (stereo not shown) [Example 42, N-hydroxy-2-methyl-4-[4-(3-methylphenyl)-1H-pyrazol-1-yl]-2-(methylsulfonyl)butanamide] were 64 µg/mL (≈ 182 µM), more than 64 µg/mL, 4 µg/mL (≈ 11.4 µM), 6.2 nM and more than 64.0 µg/mL.
Taken in the same sequence, the figures for `Cc1ccccc1-c1cnn(CCC(C)(C(=O)NO)S(C)(=O)=O)c1` (stereo not shown) [Example 43, N-hydroxy-2-methyl-4-[4-(2-methylphenyl)-1H-pyrazol-1-yl]-2-(methylsulfonyl)butanamide] were 32 µg/mL (≈ 91.1 µM), more than 64 µg/mL, 16 µg/mL (≈ 45.5 µM), 11.3 nM and more than 64.0 µg/mL.
